This is an account of results in BindingDB's records for doi:10.1016/s0960-894x(98)00722-7 (Institut De Chimie Organique De L'Universit&#233, 1999).

This assay can be described thus: Inhibitory activity against rice Alpha-galactosidase.

In turn, `OCC1=NO[C@H]2[C@H](O)C(O)O[C@@H]12` (stereo partly drawn) [(3aS,6S,6aS)-3-Hydroxymethyl-3a,5,6,6a-tetrahydro-furo[2,3-d]isoxazole-5,6-diol] registered an IC50 of 805 µM.
